In this test the target is T1, LIPG (endothelial lipase) (Homo sapiens, UniProt Q9Y5X9).
T1 construct: LIPG overexpressed in MDA-MB-468 cells
T1 sequence (Q9Y5X9 21-500): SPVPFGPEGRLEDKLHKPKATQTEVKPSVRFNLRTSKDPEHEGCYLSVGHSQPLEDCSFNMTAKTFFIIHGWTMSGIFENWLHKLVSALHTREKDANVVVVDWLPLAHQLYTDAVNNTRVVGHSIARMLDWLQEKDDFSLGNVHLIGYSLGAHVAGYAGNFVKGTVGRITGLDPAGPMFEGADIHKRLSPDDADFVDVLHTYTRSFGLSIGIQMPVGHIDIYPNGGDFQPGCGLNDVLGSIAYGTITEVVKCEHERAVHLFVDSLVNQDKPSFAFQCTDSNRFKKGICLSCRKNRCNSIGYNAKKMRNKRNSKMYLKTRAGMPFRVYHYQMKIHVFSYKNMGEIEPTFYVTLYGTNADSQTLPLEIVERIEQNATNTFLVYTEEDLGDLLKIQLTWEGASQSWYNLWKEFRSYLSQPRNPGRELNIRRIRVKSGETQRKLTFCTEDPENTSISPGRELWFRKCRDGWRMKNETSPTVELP
In words: cell-based fluorogenic phospholipase A1 assay (PED-A1 substrate) with LIPG-overexpressing MDA-MB-468 cells, parental-cell background subtracted.

IC50 data for one molecule are collected here from paper PMC7265491, “Inhibition of LIPG phospholipase activity suppresses tumor formation of human basal-like triple-negative breast cancer” (Scientific Reports, 2020).

Regarding `O=C(O)c1cc(C(F)(F)F)ccc1N1CC[C@H](OCc2ccccn2)C1` [XEN445], the IC50 was 2170 nM.
